Values quoted from earlier work, collected in patent US7771744B2, “Bazedoxifene acetate formulations” (Wyeth LLC, priority 2005, dated 2010).

Legend:
[1] = tested on: MCF-7 cell line (human breast cancer cell line)
[2] = tested on: uterine response; conditions: preclinical models of uterine stimulation
[3] = tested on: bone loss and cholesterol; conditions: ovariectomized rat model of osteopenia

solubility in aqueous and organic solvent systems compared with form B	Compound	estrogen antagonist behaviour [1]	stimulation of uterine response [2]	effect on bone loss and cholesterol [3]
higher solubility	Cc1c(-c2ccc(O)cc2)n(Cc2ccc(OCCN3CCCCCC3)cc2)c2ccc(O)cc12 [Form A, 1-[4-(2-azepan-1-yl-ethoxy)-benzyl]-2-(4-hydroxy-phenyl)-3-methyl-1H-indol-5-ol acetic acid]			
	Cc1c(-c2ccc(O)cc2)n(Cc2ccc(OCCN3CCCCCC3)cc2)c2ccc(O)cc12 [bazedoxifene acetate, 1-[4-(2-azepan-1-yl-ethoxy)-benzyl]-2-(4-hydroxy-phenyl)-3-methyl-1H-indol-5-ol acetic acid]	behaves as an estrogen antagonist	little or no stimulation of uterine response	estrogen agonist-like effect in preventing bone loss and reducing cholesterol
